For data set [1] the following is noted: clinical trials; affecting taste sensation via the tongue; cited from earlier work.
The target of data set [2] is T1, human P2X3 receptor (Homo sapiens, UniProt P56373).
T1 sequence (P56373 1-397): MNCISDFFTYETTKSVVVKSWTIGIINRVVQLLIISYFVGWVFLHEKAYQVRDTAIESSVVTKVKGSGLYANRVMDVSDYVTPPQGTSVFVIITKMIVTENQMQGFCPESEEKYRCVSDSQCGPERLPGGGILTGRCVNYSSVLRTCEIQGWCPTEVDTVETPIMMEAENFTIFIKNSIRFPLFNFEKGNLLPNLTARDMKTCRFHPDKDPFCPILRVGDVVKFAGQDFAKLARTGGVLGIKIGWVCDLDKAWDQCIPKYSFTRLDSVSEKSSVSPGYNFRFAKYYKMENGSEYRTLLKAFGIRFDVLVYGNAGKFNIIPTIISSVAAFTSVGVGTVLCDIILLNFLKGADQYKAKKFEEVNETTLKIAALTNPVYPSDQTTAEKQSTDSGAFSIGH
In words: Intracellular calcium measurement to assess antagonist activity at human P2X3 receptors (hP2X3 FLIPR). Particulars: head prints (1321N1); read-out: 1) hP2X3 IC50 [nM] (1321N1). The data set is classed as cell-based. Set-up: expressed in transfected cells; host or cells: human astrocytoma 1321N1 (1312N1 [sic]). A digest of the protocol:
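Human P2X3-expressing […] astrocytoma cells, Fluo-4-loaded, were preincubated with compound 30 min at 37 °C in HBSS/HEPES probenecid buffer (0.5 mM CaCl2, pH 7.4, 1% DMSO final). Agonist-evoked peak fluorescence over 90 s was normalised to DMSO and control wells; IC50 fitted from triplicates.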

The target of data set [3] is T1, human P2X3 receptor. The data set can be described thus: Intracellular calcium measurement, antagonist activity at human P2X3 receptors (hP2X3 1321N1), Fluo8. The data set is classed as cell-based. Set-up: expressed in transfected cells; host or cells: human astrocytoma 1321N1 (1312N1 [sic]). As to conditions: column 3); 1321N1 cells, human P2X3, Fluo8, agonist ATP at EC50. A digest of the protocol:
(§1)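 Antagonism was assessed by decrease of the Fluo8 calcium signal after ATP challenge, with ATP dosed at the EC50 of whichever receptor was tested. Stable 1321N1 astrocytoma lines expressed either human P2X3 or both P2X2 and P2X3, and were dye-loaded 60 min before a 10 min compound incubation.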
For orientation: Calcium flux is commonly read through the fluorescence of an indicator in the cells.

Data set [4] has as its target T1, human P2X3 receptor. In words: Intracellular calcium measurement to assess antagonist activity at human P2X3 receptors (hP2X3 CHO), photina luminescence. Set-up: expressed in transfected cells; host or cells: Chinese hamster ovary (CHO) cells. Particulars: column 2), CHO cells, agonist α,β-methylene-ATP at EC50. The format is cell-based. Put shortly:
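Antagonism read as lowered photina luminescence after agonist stimulation in recombinant hP2X3/photina CHO cells. Cells seeded one day earlier (30 °C) and reconstituted with 5 μg/ml coelenterazine in 2 mM Ca-tyrode buffer for 3 h at 37 °C before measurement.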

The target in another data set is T2, human P2X2/3 receptors (Homo sapiens, UniProt P56373+Q9UBL9).
T2 construct: expressed in transfected cells; host or cells: human astrocytoma 1321N1 (1312N1 [sic])
T2 sequence (P56373 1-397): T1 sequence (P56373 1-397)
T2 sequence (Q9UBL9 1-471): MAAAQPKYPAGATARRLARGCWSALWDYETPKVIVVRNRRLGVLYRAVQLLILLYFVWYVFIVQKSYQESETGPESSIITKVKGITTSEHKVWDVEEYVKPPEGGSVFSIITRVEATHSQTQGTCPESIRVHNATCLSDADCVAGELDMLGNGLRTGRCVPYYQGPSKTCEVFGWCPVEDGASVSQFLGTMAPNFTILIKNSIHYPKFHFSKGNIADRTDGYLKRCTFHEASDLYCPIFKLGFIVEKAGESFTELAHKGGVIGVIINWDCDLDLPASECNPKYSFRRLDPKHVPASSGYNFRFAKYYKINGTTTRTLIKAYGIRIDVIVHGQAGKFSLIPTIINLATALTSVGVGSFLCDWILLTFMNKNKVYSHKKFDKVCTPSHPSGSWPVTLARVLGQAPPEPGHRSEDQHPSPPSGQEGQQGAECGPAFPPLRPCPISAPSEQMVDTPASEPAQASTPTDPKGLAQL
The data set can be described thus: Intracellular calcium measurement, antagonist activity at human P2X2/3 receptors (hP2X23 1321N1), Fluo8. The data set is classed as cell-based. A digest of the protocol:
as §1

This is an account of results in US11319324B2, “Pyrazolo-pyrrolo-pyrimidine-dione derivatives as P2X3 inhibitors” (Bayer Aktiengesellschaft, priority 2017, dated 2022).

For `COc1cc(C(C)C)c(Oc2cnc(N)nc2N)cc1S(N)(=O)=O` [AF-219], the “taste disturbances in treated subjects” value in data set [1] is on record as “leads to taste disturbances”.
For the compound `CN(C)CCN1Cc2c(n(CC(=O)Nc3ccc(F)cn3)c3cc(C(C)(C)C)nn3c2=O)C1=O` [Example 139, 2-{2-tert-butyl-6-[2-(dimethylamino)ethyl]-5,8-dioxo-5,6,7,8-tetrahydro-4H-pyrazolo[1,5-a]pyrrolo[3,4-d]pyrimidin-4-yl}-N-(5-fluoropyridin-2-yl)acetamide], the IC50 at human P2X3 receptor [2] is 237 nM; at human P2X3 receptor [3], 400 nM; on human P2X3 receptor [4] it was 420 nM; on human P2X2/3 receptors (column 4); 1321N1 cells, human P2X2/3, Fluo8, agonist ATP at EC50; read-out: 4) hP2X2/3 IC50 [nM] (1321N1)) it was more than 32000 nM. Besides, the “hP2X23/hP2X3* Selectivity (1321N1)” value at human P2X2/3 receptors (ratio of column 4) hP2X2/3 to column 3) hP2X3, 1321N1) is more than 80.
